Broadly, the IC50 is the point on the concentration scale where inhibition reaches its midpoint. Read a high IC50 as a need for much substance.

The results in this text go back to US20090062273A1, “3-H-pyrazolopyridines and salts thereof, pharmaceutical compositions comprising same, methods of preparing same and uses of same” (priority 2006, published 2009).

The target in this experiment is Tie2 (Homo sapiens, UniProt Q02763). Nature of the experiment: Tie-2-Kinase HTRF-Assay without kinase preactivation. It is filed as biochemical. Also noted: fusion protein of GST and the intracellular domains of Tie-2; GST; made in house; host or cells: insect cells (Hi-5). The note with it: GST-Tie-2 intracellular domains, 10 μM ATP. The source says: Tie2-inhibitory activity of compounds of the present invention was quantified employing two Tie2 HTRF assay as described in the following paragraphs.
A recombinant fusion protein of GST and the intracellular domains of Tie-2, expressed in insect cells (Hi-5) and purified by Glutathion-Sepharose affinity chromatography was used as kinase. Alternatively, commercially available GST-Tie2-fusion protein (Upstate Biotechnology, Dundee, Scotland) can be used As substrate for the kinase reaction the biotinylated peptide biotin-Ahx-EPKDDAYPLYSDFG (C-terminus in amid form) was used which can be purchased e.g. from the company Biosynthan GmbH (Berlin-Buch, Germany). Detection of phosphorylated product is achieved specifically by a trimeric detection complex consisting of the phosphorylated substrate, streptavidin-XLent (SA-XLent) which binds to biotin, and Europium Cryptate-labeled anti-phosphotyrosine antibody PT66 which binds to phosphorylated tyrosine.
Tie-2 (3.5 ng/measurement point) was incubated for 60 min at 22° C. in the presence of 10 μM adenosine-tri-phosphate (ATP) and 1 μM substrate peptide (biotin-Ahx-EPKDDAYPLYSDFG-NH2) with different concentrations of test compounds (0 μM and concentrations in the range 0.001-20 μM) in 5 μl assay buffer [50 mM Hepes/NaOH pH 7, 10 mM MgCl2, 0.5 mM MnCl2, 1.0 mM dithiothreitol, 0.01% NP40, protease inhibitor mixture (“Complete w/o EDTA” from Roche, 1 tablet per 2.5 ml), 1% (v/v) dimethylsulfoxide]. The reaction was stopped by the addition of 5 μl of an aqueous buffer (25 mM Hepes/NaOH pH 7.5, 0.28% (w/v) bovine serum albumin) containing EDTA (90 mM) and the HTRF (Homogeneous Time Resolved Fluorescence) detection reagents streptavidine-XLent (0.2 μM, from Cis Biointernational, Marcoule, France) and PT66-Eu-Chelate (0.3 ng/μl; a europium-chelate labelled anti-phospho-tyrosine antibody from Perkin Elmer).
The resulting mixture was incubated 1 h at 22° C. to allow the binding of the biotinylated phosphorylated peptide to the streptavidine-XLent and the PT66-Eu-Chelate. Subsequently the amount of phosphorylated substrate peptide was evaluated by measurement of the resonance energy transfer from the PT66-Eu-Chelate to the streptavidine-XLent. Therefore, the fluorescence emissions at 620 nm and 665 nm after excitation at 350 nm was measured in a HTRF reader, e.g. a Rubystar (BMG Labtechnologies, Offenburg, Germany) or a Viewlux (Perkin-Elmer). The ratio of the emissions at 665 nm and at […] was taken as the measure for the amount of phosphorylated substrate peptide. The data were normalised (enzyme reaction without inhibitor=0% inhibition, all other assay components but no enzyme=100% inhibition) and IC50 values were calculated by a 4 parameter fit using an inhouse software.
On the technique in general: In TR-FRET formats the signal depends on donor and acceptor labels being close together.

Chain of Tie2 (Q02763 770-1124 limits assumed, species assumed): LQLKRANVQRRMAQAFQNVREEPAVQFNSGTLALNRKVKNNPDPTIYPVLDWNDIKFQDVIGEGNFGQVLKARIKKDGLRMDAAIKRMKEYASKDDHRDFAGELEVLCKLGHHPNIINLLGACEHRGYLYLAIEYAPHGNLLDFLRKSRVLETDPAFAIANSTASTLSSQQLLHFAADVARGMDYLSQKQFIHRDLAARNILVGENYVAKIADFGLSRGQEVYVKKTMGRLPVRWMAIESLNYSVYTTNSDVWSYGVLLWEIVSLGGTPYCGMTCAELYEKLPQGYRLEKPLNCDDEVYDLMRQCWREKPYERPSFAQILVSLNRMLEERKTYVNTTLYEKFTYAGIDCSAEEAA

On to `Cn1ncc2c(-c3ccc(NC(=O)Nc4cc(C(F)(F)F)ccc4F)cc3)cncc21` [Example 1.2, 1-(2-Fluoro-5-trifluoromethyl-phenyl)-3-[4-(1-methyl-1H-pyrazolo[3,4-c]pyridin-4-yl)-phenyl]-urea], for which the 50% inhibitory concentration (IC50) is under 0.501 µM.

Take `Cc1ccc(F)c(NC(=O)Nc2ccc(-c3cncc4c3cnn4C)cc2)c1` [Example 1.3, 1-(2-Fluoro-5-methyl-phenyl)-3-[4-(1-methyl-1H-pyrazolo[3,4-c]pyridin-4-yl)-phenyl]-urea]: the IC50 is under 0.501 µM.

Turning to `Cn1ncc2c(-c3ccc(NC(=O)Nc4cccc(C(F)(F)F)c4)cc3)cncc21` [Example 1.4, 1-[4-(1-Methyl-1H-pyrazolo[3,4-c]pyridin-4-yl)-phenyl]-3-(3-trifluoromethyl-phenyl)-urea], the IC50 was under 0.501 µM.

In turn, `CCc1cccc(NC(=O)Nc2ccc(-c3cncc4c3cnn4C)cc2)c1` [Example 1.5, 1-(3-Ethyl-phenyl)-3-[4-(1-methyl-1H-pyrazolo[3,4-c]pyridin-4-yl)-phenyl]-urea] displayed a 50% inhibitory concentration (IC50) of under 0.501 µM.

For `Cn1ncc2c(-c3ccc(NC(=O)Nc4cc(C(F)(F)F)ccn4)cc3)cncc21` [Example 1.9, 1-[4-(1-Methyl-1H-pyrazolo[3,4-c]pyridin-4-yl)-phenyl]-3-(4-trifluoromethyl-pyridin-2-yl)-urea], the IC50 is under 0.501 µM.

In turn, `Cn1ncc2c(-c3ccc(NC(=O)Nc4cc(C(F)(F)F)ccc4Cl)cc3)cncc21` [Example 1.13, 1-(2-Chloro-5-trifluoromethyl-phenyl)-3-[4-(1-methyl-1H-pyrazolo[3,4-c]pyridin-4-yl)-phenyl]-urea] displayed an IC50 of under 0.501 µM.

As for `Cn1ncc2c(-c3ccc(NC(=O)Nc4cccc(C(F)(F)F)c4)c(F)c3)cncc21` [Example 3.1, 1-[2-Fluoro-4-(1-methyl-1H-pyrazolo[3,4-c]pyridin-4-yl)-phenyl]-3-(3-trifluoromethyl-phenyl)-urea], the IC50 was under 0.501 µM.

On to `Cc1cc(-c2cncc3c2cnn3C)ccc1NC(=O)Nc1cccc(C(F)(F)F)c1` [Example 4.1, 1-[2-Methyl-4-(1-methyl-1H-pyrazolo[3,4-c]pyridin-4-yl)-phenyl]-3-(3-trifluoromethyl-phenyl)-urea], for which the IC50 was under 0.501 µM.

Regarding `CN(C(=O)Nc1cccc(C(F)(F)F)c1)c1ccc(-c2cncc3c2cnn3C)cc1` [Example 6.1, 1-Methyl-1-[4-(1-methyl-1H-pyrazolo[3,4-c]pyridin-4-yl)-phenyl]-3-(3-trifluoromethyl-phenyl)-urea], the IC50 fell in the range of 0.501 to 1 µM.

Take `Cn1ncc2c(-c3ccc(NC(=O)Nc4cc(C(F)(F)F)ccc4F)c(F)c3)cncc21` [Example 6.3, 1-[2-Fluoro-4-(1-methyl-1H-pyrazolo[3,4-c]pyridin-4-yl)-phenyl]-3-(2-fluoro-5-trifluoromethyl-phenyl)-urea]: the IC50 was under 0.501 µM.

Consider `CN1CCN(Cc2ccc(NC(=O)Nc3ccc(-c4cncc5c4cnn5C)cc3)cc2C(F)(F)F)CC1` [Example 6.4, 1-[4-(4-Methyl-piperazin-1-ylmethyl)-3-trifluoromethyl-phenyl]-3-[4-(1-methyl-1H-pyrazolo[3,4-c]pyridin-4-yl)-phenyl]-urea], for which the IC50 is under 0.501 µM.

`O=C(Nc1ccc(-c2cncc3c2cnn3CCO)cc1F)Nc1cc(C(F)(F)F)ccc1F` [Example 8.1, 1-{2-Fluoro-4-[1-(2-hydroxy-ethyl)-1H-pyrazolo[3,4-c]pyridin-4-yl]-phenyl}-3-(2-fluoro-5-trifluoromethyl-phenyl)-urea]: the IC50 is under 0.501 µM.

Compound `O=C(Nc1ccc(-c2cncc3c2cnn3CCO)cc1)Nc1cc(C(F)(F)F)ccc1F` [Example 8.2, 1-(2-Fluoro-5-trifluoromethyl-phenyl)-3-{4-[1-(2-hydroxy-ethyl)-1H-pyrazolo[3,4-c]pyridin-4-yl]-phenyl}-urea] registered a half-maximal inhibitory concentration (IC50) of under 0.501 µM.

Regarding `O=C(Nc1cccc(C(F)(F)F)c1)Nc1ccc(-c2cncc3c2cnn3CCO)cc1F` [Example 8.5, 1-{2-Fluoro-4-[1-(2-hydroxy-ethyl)-1H-pyrazolo[3,4-c]pyridin-4-yl]-phenyl}-3-(3-trifluoromethyl-phenyl)-urea], the IC50 was under 0.501 µM.

`CN1CCN(Cc2ccc(NC(=O)Nc3ccc(-c4cncc5c4cnn5CCO)cc3)cc2C(F)(F)F)CC1` [Example 8.6, 1-{4-[1-(2-Hydroxy-ethyl)-1H-pyrazolo[3,4-c]pyridin-4-yl]-phenyl}-3-[4-(4-methyl-piperazin-1-ylmethyl)-3-trifluoromethyl-phenyl]-urea] displayed an IC50 of under 0.501 µM.

`CCn1ncc2c(-c3ccc(NC(=O)Nc4cc(C(F)(F)F)ccc4F)cc3)cncc21` [Example 10.5, 1-[4-(1-Ethyl-1H-pyrazolo[3,4-c]pyridin-4-yl)-phenyl]3-(2-fluoro-5-trifluoromethyl-phenyl)-urea] yielded an IC50 of under 0.501 µM.

In the case of `CCn1ncc2c(-c3ccc(NC(=O)Nc4cccc(C(F)(F)F)c4)c(F)c3)cncc21` [Example 11.1, 1-[4-(1-Ethyl-1H-pyrazolo[3,4-c]pyridin-4-yl)-2-fluoro-phenyl]-3-(3-trifluoromethyl-phenyl)-urea], the IC50 was under 0.501 µM.

Regarding `CCn1ncc2c(-c3ccc(NC(=O)Nc4cc(C(F)(F)F)ccc4F)c(F)c3)cncc21` [Example 11.2, 1-[4-(1-Ethyl-1H-pyrazolo[3,4-c]pyridin-4-yl)-2-fluoro-phenyl]-3-(2-fluoro-5-trifluoromethyl-phenyl)-urea], the IC50 is under 0.501 µM.

With `CCn1ncc2c(-c3ccc(NC(=O)Nc4cc(C)ccc4F)c(F)c3)cncc21` [Example 11.3, 1-[4-(1-Ethyl-1H-pyrazolo[3,4-c]pyridin-4-yl)-2-fluoro-phenyl]-3-(2-fluoro-5-methyl-phenyl)-urea], the IC50 was under 0.501 µM.

The compound `COCCn1ncc2c(-c3ccc(NC(=O)Nc4cccc(C(F)(F)F)c4)cc3)cncc21` [Example 12.1, 1-{4-[1-(2-Methoxy-ethyl)-1H-pyrazolo[3,4-c]pyridin-4-yl]-phenyl}-3-(3-trifluoromethyl-phenyl)-urea] gave an IC50 of under 0.501 µM.

In turn, `COCCn1ncc2c(-c3ccc(NC(=O)Nc4cc(C)ccc4F)cc3)cncc21` [Example 12.3, 1-(2-Fluoro-5-methyl-phenyl)-3-{4-[1-(2-methoxy-ethyl)-1H-pyrazolo[3,4-c]pyridin-4-yl]-phenyl}-urea] registered a half-maximal inhibitory concentration (IC50) of under 0.501 µM.

Compound `COCCn1ncc2c(-c3ccc(NC(=O)Nc4cccc(C(F)(F)F)c4)c(F)c3)cncc21` [Example 12.4, 1-{2-Fluoro-4-[1-(2-methoxy-ethyl)-1H-pyrazolo[3,4-c]pyridin-4-yl]-phenyl}-3-(3-trifluoromethyl-phenyl)-urea] registered a 50% inhibitory concentration (IC50) of under 0.501 µM.

The compound `COCCn1ncc2c(-c3ccc(NC(=O)Nc4cc(C(F)(F)F)ccc4F)c(F)c3)cncc21` [Example 12.5, 1-{2-Fluoro-4-[1-(2-methoxy-ethyl)-1H-pyrazolo[3,4-c]pyridin-4-yl]-phenyl}-3-(2-fluoro-5-trifluoromethyl-phenyl)-urea] displayed an IC50 of under 0.501 µM.

For the compound `Cn1ncc2c(-c3ccc(NC(=O)Nc4cc(C(C)(C)C)on4)cc3)cncc21` [Example 13.2, 1-(5-tert-Butyl-isoxazol-3-yl)-3-[4-(1-methyl-1H-pyrazolo[3,4-c]pyridin-4-yl)-phenyl]-urea], the IC50 was under 0.501 µM.

Regarding `Cn1ncc2c(-c3ccc(NC(=O)Nc4cc(C(C)(C)C)nn4-c4ccccc4)cc3)cncc21` [Example 13.4, 1-(5-tert-Butyl-2-phenyl-2H-pyrazol-3-yl)-13-[4-(1-methyl-1H-pyrazolo[3,4-c]pyridin-4-yl)-phenyl]-urea], the IC50 was under 0.501 µM.
